# Reference: patent US20220289727A1, “ENZYME INHIBITORS” (KALVISTA PHARMACEUTICALS LIMITED, priority 2019, published 2022)
# Target: T1, Human Factor XIIa (Homo sapiens, UniProt P00748)
# T1 construct: Human Factor XIIa (Enzyme Research Laboratories) was incubated; purchased Enzyme Research Laboratories
# T1 sequence (P00748 373-615 limits assumed): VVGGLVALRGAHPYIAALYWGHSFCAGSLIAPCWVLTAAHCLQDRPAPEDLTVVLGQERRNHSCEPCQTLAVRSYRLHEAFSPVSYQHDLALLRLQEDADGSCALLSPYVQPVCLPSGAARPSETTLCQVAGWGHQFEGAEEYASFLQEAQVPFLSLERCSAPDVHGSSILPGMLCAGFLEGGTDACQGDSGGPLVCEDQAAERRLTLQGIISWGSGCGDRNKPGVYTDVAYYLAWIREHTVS
# T1 sequence (P00748 20-372 partner limits assumed): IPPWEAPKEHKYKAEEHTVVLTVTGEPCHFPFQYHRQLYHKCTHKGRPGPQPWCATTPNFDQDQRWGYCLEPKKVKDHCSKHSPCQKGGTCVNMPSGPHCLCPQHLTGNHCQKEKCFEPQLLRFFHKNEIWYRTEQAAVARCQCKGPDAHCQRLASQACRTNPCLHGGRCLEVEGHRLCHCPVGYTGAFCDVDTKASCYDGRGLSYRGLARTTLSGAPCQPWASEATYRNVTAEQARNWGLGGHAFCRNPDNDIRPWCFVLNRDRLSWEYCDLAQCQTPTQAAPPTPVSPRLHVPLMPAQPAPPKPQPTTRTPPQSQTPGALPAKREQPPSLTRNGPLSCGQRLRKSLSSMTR
# Test: Determination of FXIIa inhibitory activity in vitro (fluorogenic substrate H-DPro-Phe-Arg-AFC)
# Assay type: biochemical
# Settings: 25° C., residual enzyme activity (initial rate)
row,SMILES,IC50 [µM]
1,CN1CCN(Cc2sc(C(=O)NCc3ccc4c(N)nccc4c3)cc2Cl)CC1 [Example 5.04],10 to 40
2,CC(=O)N1CCN(Cc2sc(C(=O)NCc3ccc4c(N)nccc4c3)cc2Cl)CC1 [Example 5.05],10 to 40
3,CC(C)N1CCN(Cc2sc(C(=O)NCc3ccc4c(N)nccc4c3)cc2Cl)CC1 [Example 5.06],10 to 40
4,CS(=O)(=O)N1CCN(Cc2sc(C(=O)NCc3ccc4c(N)nccc4c3)cc2Cl)CC1 [Example 5.07],10 to 40
5,Nc1nccc2cc(CNC(=O)c3cc(Cl)c(CN4CCC(F)(F)C4)s3)ccc12 [Example 5.08],10 to 40
6,Nc1nccc2cc(CNC(=O)c3cc(Cl)c(CN4Cc5ccccc5C4)s3)ccc12 [Example 5.09],10 to 40
7,Nc1nccc2cc(CNC(=O)c3cc(Cl)c(CN4CCc5ncccc5C4)s3)ccc12 [Example 5.10],3 to 10
8,Nc1nccc2cc(CNC(=O)c3cc(Cl)c(CN4CC(O)C4)s3)ccc12 [Example 5.11],10 to 40
9,Nc1nccc2cc(CNC(=O)c3cc(Cl)c(CN4CCC(CCN5CCCC5=O)CC4)s3)ccc12 [Example 5.13],10 to 40
10,Nc1nccc2cc(CNC(=O)c3cc(Cl)c(CN4CCC5(CC4)OCCO5)s3)ccc12 [Example 5.14],10 to 40
11,Nc1nccc2cc(CNC(=O)c3cc(Cl)c(CN4CCN(c5cnccn5)CC4)s3)ccc12 [Example 5.15],10 to 40
12,CS(=O)(=O)c1ccc(OCc2sc(C(=O)NCc3ccc4c(N)nccc4c3)cc2Cl)cc1 [Example 7.01],10 to 40
13,Cn1cnc2cc(OCc3sc(C(=O)NCc4ccc5c(N)nccc5c4)cc3Cl)ccc21 [Example 7.02],10 to 40
14,"Nc1nccc2cc(CNC(=O)c3cc(Cl)c(COc4ccc(N5CCNCC5)cc4)s3)ccc12 [Example 7.03, N-((1-Aminoisoquinolin-6-yl)methyl)-4-chloro-5-((4-(piperazin-1-yl)phenoxy)methyl)thiophene-2-carboxamide]",1 to 3
15,CC(C)NC(=O)N(C)c1ccc(OCc2sc(C(=O)NCc3ccc4c(N)nccc4c3)cc2Cl)cc1 [Example 7.04],10 to 40
16,Nc1nccc2cc(CNC(=O)c3cc(Cl)c(COc4cccc(N5CCNCC5)c4)s3)ccc12 [Example 7.05],1 to 3

row,SMILES,IC50 [µM]
1,Nc1nccc2cc(CNC(=O)c3cc(Cl)c(COCCN4CCOCC4)s3)ccc12 [Example 7.06],3 to 10
2,Nc1nccc2cc(CNC(=O)c3cc(Cl)c(COCCN4CCCCC4)s3)ccc12 [Example 7.07],3 to 10
3,CN1CCC(COCc2sc(C(=O)NCc3ccc4c(N)nccc4c3)cc2Cl)CC1 [Example 7.08],1 to 3
4,Nc1nccc2cc(CNC(=O)c3cc(Cl)c(COCCN4CCS(=O)(=O)CC4)s3)ccc12 [Example 7.09],3 to 10
5,Nc1nccc2cc(CNC(=O)c3cc(Cl)c(COCc4ccccn4)s3)ccc12 [Example 7.10],10 to 40
6,CS(=O)(=O)c1cccc(COCc2sc(C(=O)NCc3ccc4c(N)nccc4c3)cc2Cl)c1 [Example 7.11],10 to 40
7,Nc1nccc2cc(CNC(=O)c3cc(Cl)c(COCCC4CCOCC4)s3)ccc12 [Example 7.12],10 to 40
8,Nc1nccc2cc(CNC(=O)c3cc(Cl)c(COCC4CCOCC4)s3)ccc12 [Example 7.13],3 to 10
9,Nc1nccc2cc(CNC(=O)c3cc(Cl)c(COCCN4CCCC4)s3)ccc12 [Example 7.14],3 to 10
10,CN(C)CCOCc1sc(C(=O)NCc2ccc3c(N)nccc3c2)cc1Cl [Example 7.15],3 to 10
11,Nc1nccc2cc(CNC(=O)c3cc(Cl)c(COCCn4ccnc4)s3)ccc12 [Example 7.16],3 to 10
12,CN(CCOCc1sc(C(=O)NCc2ccc3c(N)nccc3c2)cc1Cl)Cc1ccccc1 [Example 7.17],10 to 40
13,Nc1nccc2cc(CNC(=O)c3cc(Cl)c(COCC4CCN(Cc5ccccc5)CC4)s3)ccc12 [Example 7.18],10 to 40
14,Nc1nccc2cc(CNC(=O)c3cc(Cl)c(COCc4cccnc4)s3)ccc12 [Example 7.19],3 to 10
15,Nc1nccc2cc(CNC(=O)c3cc(Cl)c(COCc4ccncc4)s3)ccc12 [Example 7.20],3 to 10
